Assays:
[1] = tested on: IgE antibodies in sera from birch pollen allergic patients; test: ELISA detection of peptide- and rBet v 1-specific IgE antibodies; assay type: binding, human
How it was run: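 Sera from 60 birch pollen allergic patients (rhinoconjunctivitis and/or asthma; skin prick and CAP RAST characterized) plus one non-atopic individual, diluted 1:3, incubated overnight at 4 °C on coated plates. Bound IgE detected with 1:1000 alkaline-phosphatase-coupled mouse anti-human IgE.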

[2] = tested on: birch pollen allergic patients; test: Skin prick testing of allergic patients; assay type: in vivo, human; conditions: 100 μg/ml
Description: SPTs were performed on the individuals forearms as described ([…]. et al. (1997) J. Clin Invest. 99, 1673-168; Dreborg S: (1989) J. Am. Acad. DerMatol. 21, 820-821). […] In addition standardized skin prick solutions (birch pollen extract and histamine) (Allergopharma, Reinbek, Germany) were tested. Reactions were recorded 20 minutes after SPT by photography and by transferring the ballpoint pen-surrounded wheal area with a scotch tape to paper.

**Q.** “CVDHTNFKYNYSVIEGGPIGDTLEKISNEIK [Peptide P6, Bet v 1-derived synthetic peptide, position aa 75-104, one cysteine added]” was tested. Which “IgE (OD)” value ([1]; serum of NHS, non-allergic control individual) did it give?
**A.** — (Dashes indicate reactivities below the cut-off level (OD=0.050))

**Q.** And the “IgE (OD)” value ([1]; serum of patient 1)?
**A.** — (Dashes indicate reactivities below the cut-off level (OD=0.050))

**Q.** What about the “IgE (OD)” value ([1]; serum of patient 2) of the same sequence?
**A.** — (Dashes indicate reactivities below the cut-off level (OD=0.050))

**Q.** And the “IgE (OD)” value ([1]; serum of patient 3)?
**A.** — (Dashes indicate reactivities below the cut-off level (OD=0.050))

**Q.** What about the “IgE (OD)” value ([1]; serum of patient 4) of the same sequence?
**A.** — (Dashes indicate reactivities below the cut-off level (OD=0.050))

**Q.** And the “IgE (OD)” value ([1]; serum of patient 5)?
**A.** — (Dashes indicate reactivities below the cut-off level (OD=0.050))

**Q.** And the “IgE (OD)” value ([1]; serum of patient 6)?
**A.** — (Dashes indicate reactivities below the cut-off level (OD=0.050))

**Q.** And the “IgE (OD)” value ([1]; serum of patient 7)?
**A.** — (Dashes indicate reactivities below the cut-off level (OD=0.050))

**Q.** And the “IgE (OD)” value ([1]; serum of patient 8)?
**A.** — (Dashes indicate reactivities below the cut-off level (OD=0.050))

**Q.** What about the “IgE (OD)” value ([1]; serum of patient 9) of the same sequence?
**A.** — (Dashes indicate reactivities below the cut-off level (OD=0.050))

**Q.** And the “IgE (OD)” value ([1]; serum of patient 10)?
**A.** — (Dashes indicate reactivities below the cut-off level (OD=0.050))

**Q.** What about the “IgE (OD)” value ([1]; serum of patient 11) of the same sequence?
**A.** — (Dashes indicate reactivities below the cut-off level (OD=0.050))

**Q.** What about the “IgE (OD)” value ([1]; serum of patient 12) of the same sequence?
**A.** — (Dashes indicate reactivities below the cut-off level (OD=0.050))

**Q.** And the “IgE (OD)” value ([1]; serum of patient 13)?
**A.** — (Dashes indicate reactivities below the cut-off level (OD=0.050))

**Q.** What about the “IgE (OD)” value ([1]; serum of patient 14) of the same sequence?
**A.** — (Dashes indicate reactivities below the cut-off level (OD=0.050))

**Q.** And the “IgE (OD)” value ([1]; serum of patient 15)?
**A.** — (Dashes indicate reactivities below the cut-off level (OD=0.050))

**Q.** And the “IgE (OD)” value ([1]; serum of patient 16)?
**A.** — (Dashes indicate reactivities below the cut-off level (OD=0.050))

**Q.** What about the “IgE (OD)” value ([1]; serum of patient 17) of the same sequence?
**A.** — (Dashes indicate reactivities below the cut-off level (OD=0.050))

**Q.** And the “IgE (OD)” value ([1]; serum of patient 18)?
**A.** — (Dashes indicate reactivities below the cut-off level (OD=0.050))

**Q.** And the “IgE (OD)” value ([1]; serum of patient 19)?
**A.** — (Dashes indicate reactivities below the cut-off level (OD=0.050))

**Q.** And the “IgE (OD)” value ([1]; serum of patient 20)?
**A.** — (Dashes indicate reactivities below the cut-off level (OD=0.050))

**Q.** What about the “IgE (OD)” value ([1]; serum of patient 21) of the same sequence?
**A.** — (Dashes indicate reactivities below the cut-off level (OD=0.050))

**Q.** And the “IgE (OD)” value ([1]; serum of patient 22)?
**A.** — (Dashes indicate reactivities below the cut-off level (OD=0.050))

**Q.** What about the “IgE (OD)” value ([1]; serum of patient 23) of the same sequence?
**A.** — (Dashes indicate reactivities below the cut-off level (OD=0.050))

**Q.** What about the “IgE (OD)” value ([1]; serum of patient 24) of the same sequence?
**A.** — (Dashes indicate reactivities below the cut-off level (OD=0.050))

**Q.** What about the “IgE (OD)” value ([1]; serum of patient 25) of the same sequence?
**A.** — (Dashes indicate reactivities below the cut-off level (OD=0.050))

**Q.** And the “IgE (OD)” value ([1]; serum of patient 26)?
**A.** — (Dashes indicate reactivities below the cut-off level (OD=0.050))

**Q.** And the “IgE (OD)” value ([1]; serum of patient 27)?
**A.** — (Dashes indicate reactivities below the cut-off level (OD=0.050))

**Q.** What about the “IgE (OD)” value ([1]; serum of patient 28) of the same sequence?
**A.** — (Dashes indicate reactivities below the cut-off level (OD=0.050))

**Q.** What about the “IgE (OD)” value ([1]; serum of patient 29) of the same sequence?
**A.** — (Dashes indicate reactivities below the cut-off level (OD=0.050))

**Q.** And the “IgE (OD)” value ([1]; serum of patient 30)?
**A.** — (Dashes indicate reactivities below the cut-off level (OD=0.050))

**Q.** What about the “IgE (OD)” value ([1]; serum of patient 31) of the same sequence?
**A.** — (Dashes indicate reactivities below the cut-off level (OD=0.050))

**Q.** What about the “IgE (OD)” value ([1]; serum of patient 32) of the same sequence?
**A.** — (Dashes indicate reactivities below the cut-off level (OD=0.050))

**Q.** And the “IgE (OD)” value ([1]; serum of patient 33)?
**A.** — (Dashes indicate reactivities below the cut-off level (OD=0.050))

**Q.** What about the “IgE (OD)” value ([1]; serum of patient 34) of the same sequence?
**A.** — (Dashes indicate reactivities below the cut-off level (OD=0.050))

**Q.** And the “IgE (OD)” value ([1]; serum of patient 35)?
**A.** — (Dashes indicate reactivities below the cut-off level (OD=0.050))

**Q.** What about the “IgE (OD)” value ([1]; serum of patient 36) of the same sequence?
**A.** — (Dashes indicate reactivities below the cut-off level (OD=0.050))

**Q.** What about the “IgE (OD)” value ([1]; serum of patient 37) of the same sequence?
**A.** — (Dashes indicate reactivities below the cut-off level (OD=0.050))

**Q.** What about the “IgE (OD)” value ([1]; serum of patient 38) of the same sequence?
**A.** — (Dashes indicate reactivities below the cut-off level (OD=0.050))

**Q.** What about the “IgE (OD)” value ([1]; serum of patient 39) of the same sequence?
**A.** — (Dashes indicate reactivities below the cut-off level (OD=0.050))

**Q.** And the “IgE (OD)” value ([1]; serum of patient 40)?
**A.** — (Dashes indicate reactivities below the cut-off level (OD=0.050))

**Q.** And the “IgE (OD)” value ([1]; serum of patient 41)?
**A.** — (Dashes indicate reactivities below the cut-off level (OD=0.050))

**Q.** And the “IgE (OD)” value ([1]; serum of patient 42)?
**A.** — (Dashes indicate reactivities below the cut-off level (OD=0.050))

**Q.** What about the “IgE (OD)” value ([1]; serum of patient 43) of the same sequence?
**A.** — (Dashes indicate reactivities below the cut-off level (OD=0.050))

**Q.** And the “IgE (OD)” value ([1]; serum of patient 44)?
**A.** — (Dashes indicate reactivities below the cut-off level (OD=0.050))

**Q.** And the “IgE (OD)” value ([1]; serum of patient 45)?
**A.** — (Dashes indicate reactivities below the cut-off level (OD=0.050))

**Q.** And the “IgE (OD)” value ([1]; serum of patient 46)?
**A.** — (Dashes indicate reactivities below the cut-off level (OD=0.050))

**Q.** What about the “IgE (OD)” value ([1]; serum of patient 47) of the same sequence?
**A.** — (Dashes indicate reactivities below the cut-off level (OD=0.050))

**Q.** And the “IgE (OD)” value ([1]; serum of patient 48)?
**A.** — (Dashes indicate reactivities below the cut-off level (OD=0.050))

**Q.** And the “IgE (OD)” value ([1]; serum of patient 49)?
**A.** — (Dashes indicate reactivities below the cut-off level (OD=0.050))

**Q.** What about the “IgE (OD)” value ([1]; serum of patient 50) of the same sequence?
**A.** — (Dashes indicate reactivities below the cut-off level (OD=0.050))

**Q.** And the “IgE (OD)” value ([1]; serum of patient 51)?
**A.** — (Dashes indicate reactivities below the cut-off level (OD=0.050))

**Q.** And the “IgE (OD)” value ([1]; serum of patient 52)?
**A.** — (Dashes indicate reactivities below the cut-off level (OD=0.050))

**Q.** And the “IgE (OD)” value ([1]; serum of patient 53)?
**A.** — (Dashes indicate reactivities below the cut-off level (OD=0.050))

**Q.** And the “IgE (OD)” value ([1]; serum of patient 54)?
**A.** — (Dashes indicate reactivities below the cut-off level (OD=0.050))

**Q.** What about the “IgE (OD)” value ([1]; serum of patient 55) of the same sequence?
**A.** — (Dashes indicate reactivities below the cut-off level (OD=0.050))

**Q.** And the “IgE (OD)” value ([1]; serum of patient 56)?
**A.** — (Dashes indicate reactivities below the cut-off level (OD=0.050))

**Q.** And the “IgE (OD)” value ([1]; serum of patient 57)?
**A.** — (Dashes indicate reactivities below the cut-off level (OD=0.050))

**Q.** And the “IgE (OD)” value ([1]; serum of patient 58)?
**A.** — (Dashes indicate reactivities below the cut-off level (OD=0.050))

**Q.** What about the “IgE (OD)” value ([1]; serum of patient 59) of the same sequence?
**A.** — (Dashes indicate reactivities below the cut-off level (OD=0.050))

**Q.** What about the “IgE (OD)” value ([1]; serum of patient 60) of the same sequence?
**A.** — (Dashes indicate reactivities below the cut-off level (OD=0.050))

**Q.** And the mean wheal diameter ([2]; individual 1)?
**A.** 0 mm

**Q.** And the mean wheal diameter ([2]; individual 2)?
**A.** 0 mm

**Q.** And the mean wheal diameter ([2]; individual 3)?
**A.** 0 mm

**Q.** And the mean wheal diameter ([2]; individual 4)?
**A.** 0 mm

**Q.** And the mean wheal diameter ([2]; individual 5)?
**A.** 0 mm

**Q.** What about the mean wheal diameter ([2]; individual 6 (allergic, without birch pollen allergy)) of the same sequence?
**A.** 0 mm

Reference: patent publication US7244431B2, “Allergy vaccines and their preparation” (priority 2000, dated 2007)
